According to patent publication US20220324835A1 (Nurix Therapeutics, Inc., priority 2018, published 2022):

Legend:
Type in all cases: cell-based
[1] = system: primary human total T-cells; test: T-cell activation assessed by cell proliferation (Cell Trace Violet)
Outline: (§1)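 Readouts are fold change versus compound-free cells under the same stimulation: plate-bound anti-CD3 (OKT3, 10 μg/mL coating) alone or with soluble anti-CD28 at 5 μg/mL, for 48 h. Isolated human total T cells (1×10^5/well) got inhibitor 1 h beforehand at concentrations such as 10, 1.11 or 0.123 μM. Measured: GM-CSF/IFNγ/TNFα secretion, surface CD69, proliferation by dye dilution.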

primary human B cells = test: B cell activation assay (CD69 on anti-IgM stimulated B cells); settings: AUC of dose response curve (10 μM to 1 nM) of CD69 MFI normalized to DMSO control
Outline: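 Negatively selected PBMC-derived B cells (>95% CD20+) treated with Cbl-b inhibitors from 10 μM to 1 nM (DMSO <0.5%) and stimulated with anti-IgM for 20 h at 37° C. CD69 MFI on CD20+ IgD+ cells by flow cytometry; dose-response AUC normalized to DMSO plus 2.5 μg/mL anti-IgM-F(ab′)2, binned A-D.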

T-cell = test: CD25 cell surface staining on T-cells stimulated with anti-CD3 antibody alone (Biological Example 2); settings: primary human total T-cells, baseline = anti-CD3/anti-CD28 stimulated cells without inhibitor, read-out: CD25 staining, Anti-CD3 stimulation, fold change over baseline; for fold induction at 1 µM: 1 μM compound; for fold induction at 8 µM: 8 μM compound
[2] = system: primary human total T-cells; test: T-cell activation assessed by cytokine secretion (GM-CSF, IFNγ, TNFα)
Outline: as §1

[3] = system: primary human total T-cells; test: T-cell activation assessed by CD69 expression
Outline: as §1

[4] = CD3/CD28 stimulation, CD4 T-cells, read-out: % CP (cell proliferation) (CD4)
[5] = CD3/CD28 stimulation, CD8 T-cells, read-out: % CP (cell proliferation) (CD8)
[6] = CD3 alone stimulation, CD8 T-cells, read-out: % CP (cell proliferation) (CD8)
[7] = CD3/CD28 stimulation, read-out: GM-CSF secretion
[8] = CD3/CD28 stimulation, read-out: IFNγ secretion
[9] = CD3/CD28 stimulation, read-out: TNFα secretion
[10] = CD3 alone stimulation, read-out: GM-CSF secretion
[11] = CD3 alone stimulation, read-out: IFNγ secretion
[12] = CD3 alone stimulation, read-out: TNFα secretion
[13] = CD3/CD28 stimulation, CD4 T-cells, read-out: % CD69+ (CD4)
[14] = CD3/CD28 stimulation, CD8 T-cells, read-out: % CD69+ (CD8)
[15] = CD3 alone stimulation, CD4 T-cells, read-out: % CD69+ (CD4)
[16] = CD3 alone stimulation, CD8 T-cells, read-out: % CD69+ (CD8)

Structure (SMILES) | fold induction at 1.11 µM [1, 4] | fold induction at 10 µM [1, 4] | fold induction at 1.11 µM [1, 5] | fold induction at 10 µM [1, 5] | fold induction at 1.11 µM [1, 6] | fold induction at 10 µM [1, 6] | CD69 MFI AUC (primary human B cells) | fold induction at 1 µM (T-cell) | fold induction at 8 µM (T-cell) | fold induction at 1.11 µM [2, 7] | fold induction at 1.11 µM [2, 8] | fold induction at 1.11 µM [2, 9] | fold induction at 10 µM [2, 7] | fold induction at 10 µM [2, 8] | fold induction at 10 µM [2, 9] | fold induction at 1.11 µM [2, 10] | fold induction at 1.11 µM [2, 11] | fold induction at 1.11 µM [2, 12] | fold induction at 10 µM [2, 10] | fold induction at 10 µM [2, 11] | other results
Cc1cc2c(c(C3CC3)n1)CN(c1cccc([C@H](C)Cc3nncn3C)c1)C2=O [Compound 372, 4-cyclopropyl-6-methyl-2-{3-[(2R)-1-(4-methyl-4H-1,2,4-triazol-3-yl)propan-2-yl]phenyl}-1H,2H,3H-pyrrolo[3,4-c]pyridin-1-one] | < 2 | > 4 | < 2 | 2.01 to 3 | < 2 | 2.01 to 3 | A (A indicates ≤0.5) | 0.601 to 0.8 | 0.801 to 1 | ≤ 1.5 | < 2 | ≤ 1.5 | 2.01 to 4 | < 2 | 2.01 to 4 | ≤ 1.5 | < 2 | ≤ 1.5 | 1.51 to 2 | < 2 | fold induction at 10 µM [2, 12]: ≤ 1.5; fold induction at 1.11 µM [3, 13]: ≤ 1.2; fold induction at 10 µM [3, 13]: 1.2 to 1.4; fold induction at 1.11 µM [3, 14]: ≤ 1.2; fold induction at 10 µM [3, 14]: 1.2 to 1.4; fold induction at 1.11 µM [3, 15]: ≤ 1.2; fold induction at 10 µM [3, 15]: 1.2 to 1.4; fold induction at 1.11 µM [3, 16]: ≤ 1.2; fold induction at 10 µM [3, 16]: 1.2 to 1.4
CNCc1ccc(C(=O)Nc2cccc([C@H](C)Cc3nncn3C)c2)nc1C1CC1 [Compound 376, (R)-6-cyclopropyl-N-(3-(1-(4-methyl-4H-1,2,4-triazol-3-yl)propan-2-yl)phenyl)-5-((methylamino)methyl)picolinamide] | > 4 | > 4 | 3.01 to 4 | > 4 | > 4 | > 4 | B (B indicates 0.5-1.00) | 0.801 to 1 | > 1 | 2.01 to 4 | < 2 | 2.01 to 4 | > 4 | < 2 | 2.01 to 4 | 1.51 to 2 | 2.01 to 3 | ≤ 1.5 | 2.01 to 4 | 3.01 to 4 | fold induction at 10 µM [2, 12]: 1.51 to 2; fold induction at 1.11 µM [3, 13]: 1.4 to 1.6; fold induction at 10 µM [3, 13]: > 1.6; fold induction at 1.11 µM [3, 14]: 1.2 to 1.4; fold induction at 10 µM [3, 14]: 1.2 to 1.4; fold induction at 1.11 µM [3, 15]: > 1.6; fold induction at 10 µM [3, 15]: > 1.6; fold induction at 1.11 µM [3, 16]: 1.2 to 1.4; fold induction at 10 µM [3, 16]: 1.4 to 1.6
